# Laboratory results published in patent US12296048B2, “Polymer particles for neutrophil injury” (THE REGENTS OF THE UNIVERSITY OF MICHIGAN, priority 2019, dated 2025).
# System: mice with LPS-induced ALI
# Type: in vivo
# Protocol: In a lipopolysaccharide (LPS) mouse model of ALI, LPS administered to the lungs of healthy mice induces rapid recruitment of neutrophils into the lungs.
# Poly-A microspheres were injected into the tail vein of mice with LPS-induced ALI at 30 mg/kg.
# Male BALB/c or C57BL/6J mice were anesthetized with inhaled isoflurane, and given 50 μL of 0.4 mg/mL LPS orotracheally to induce lung inflammation. Particles (2×10^8 in 100 μL PBS per mouse) were injected at either 2 hrs or 6 hrs post-instillation via tail vein catheter. Methods of euthanasia and sample processing are shared with the P. Aeruginosa model (below) except instead of cytospin BALF, cells were stained with CD45, CD11b, and Ly6G, and were fixed overnight before flow cytometry to determine the % of neutrophils and macrophages in each sample.
smiles,measurement,setting,value
CC(=O)Oc1ccccc1C(=O)O [aspirin],BALF concentration of KC,LPS-ALI mice,not
same,BALF concentration of MIP2,LPS-ALI mice,not
same,BALF neutrophil count compared to ALI mice with no particles,"tail vein injection 1 hr after LPS, Poly-A 30 mg/kg, aspirin in DMSO",did not reduce
